According to patent publication US10028966B2 (Avalyn Pharma Inc., priority 2014, dated 2018):

What was measured:
[1] = Buffer and pH effects study: pirfenidone saturation solubility; format: physicochemical; conditions: thermodynamic from solid
Experimental: The sample was agitated at ambient temperature overnight. The sample was visually inspected, appearance recorded, centrifuged to sediment any un-dissolved material, and the supernatant withdrawn via syringe through a 0.22 μm PVDF filter. […] The remaining filtered sample was split into three equal volumes in glass vials and placed at 25° C./60 RH, 40° C./75 RH and refrigeration. Samples were wrapped in aluminum foil to reduce light exposure. After the first night of incubation, samples were briefly visually inspected for any signs of discoloration or precipitate formation.

[2] = Aerosol tolerability analysis of low concentration dosage forms; design: key to Throat Irritation: 1 = none; 5 = strong
Text: Additional observations include maintaining osmolality between about 250 to about 500 mOsmo/kg. The tolerability for formulations with an osmolalty outside this range may be adjusted with modifications in the above formulation parameters and device output and aerosol particle size characteristics.

Cc1ccc(=O)n(-c2ccccc2)c1 [pirfenidone, 5-methyl-1-phenyl-2-(1H)-pyridone]
18.1 mg/mL: solubility ([1]; citrate buffer, pH 4, aqueous buffer, Citrate buffer 50 mM, pH 4, ambient temperature overnight)
400 mOsmo/Kg: Est. Osmolality ([2]; citrate 5 mM, NaCl 100 mM, pH 5.5, pirfenidone 16 mg/mL (3.2 micron entry)) | Est. Osmolality ([2]; citrate 5 mM, NaCl 100 mM, pH 5.5, pirfenidone 16 mg/mL (first 3.7 micron entry)) | Est. Osmolality ([2]; citrate 5 mM, NaCl 100 mM, pH 5.5, pirfenidone 16 mg/mL (second 3.7 micron entry)) | Est. Osmolality ([2]; citrate 5 mM, NaCl 100 mM, saccharin 0.7 mM, pH 5.5, pirfenidone 16 mg/mL (3.2 micron entry)) | Est. Osmolality ([2]; citrate 5 mM, NaCl 100 mM, saccharin 0.7 mM, pH 5.5, pirfenidone 16 mg/mL (3.7 micron entry)) | Est. Osmolality ([2]; citrate 5 mM, NaCl 100 mM, saccharin 0.7 mM, pH 5.5, pirfenidone 16 mg/mL (4.6 micron entry)) | Est. Osmolality ([2]; citrate 5 mM, NaCl 100 mM, saccharin 0.9 mM, pH 5.5, pirfenidone 16 mg/mL (3.2 micron entry)) | Est. Osmolality ([2]; citrate 5 mM, NaCl 100 mM, saccharin 0.9 mM, pH 5.5, pirfenidone 16 mg/mL (3.7 micron entry)) | Est. Osmolality ([2]; citrate 5 mM, NaCl 150 mM, pH 5.5, pirfenidone 16 mg/mL) | Est. Osmolality ([2]; citrate 5 mM, NaCl 150 mM, saccharin 0.5 mM, pH 5.5, pirfenidone 16 mg/mL) | Est. Osmolality ([2]; citrate 5 mM, NaCl 150 mM, saccharin 0.9 mM, pH 5.5, pirfenidone 16 mg/mL)
17.2 mg/mL: solubility ([1]; phosphate buffer, pH 6, aqueous buffer, Phosphate buffer 50 mM, pH 6, ambient temperature overnight)
430 mOsmo/Kg: Est. Osmolality ([2]; citrate 5 mM, NaCl 100 mM, MgCl2 43.3 mM, pH 5.5, pirfenidone 16 mg/mL) | Est. Osmolality ([2]; citrate 5 mM, NaCl 100 mM, MgCl2 43.3 mM, saccharin 0.6 mM, pH 5.5, pirfenidone 16 mg/mL)
18.3 mg/mL: solubility ([1]; phosphate buffer, pH 6, aqueous buffer, Phosphate buffer 5 mM, pH 6, ambient temperature overnight)
5: Throat Irritation ([2]; no buffer, NaCl 150 mM, pH ND, pirfenidone 16 mg/mL, 3.2 micron)
16.4 mg/mL: solubility ([1]; citrate buffer, pH 6, aqueous buffer, Citrate buffer 50 mM, pH 6, ambient temperature overnight)
19 mg/mL: solubility ([1]; phosphate buffer, pH 7.5, aqueous buffer, Phosphate buffer 5 mM, pH 7.5, ambient temperature overnight)
2: Throat Irritation ([2]; citrate 5 mM, MgCl2 130 mM, saccharin 0.5 mM, pH 5.5, pirfenidone 16 mg/mL, 3.7 micron) | Throat Irritation ([2]; citrate 5 mM, NaCl 100 mM, MgCl2 43.3 mM, saccharin 0.6 mM, pH 5.5, pirfenidone 16 mg/mL, 3.7 micron) | Throat Irritation ([2]; citrate 5 mM, NaCl 100 mM, pH 5.5, pirfenidone 4 mg/mL, 3.2 micron) | Throat Irritation ([2]; citrate 5 mM, NaCl 100 mM, pH 5.5, pirfenidone 16 mg/mL, 3.2 micron) | Throat Irritation ([2]; citrate 5 mM, NaCl 100 mM, saccharin 0.3 mM, pH 5.5, pirfenidone 4 mg/mL, 3.7 micron) | Throat Irritation ([2]; citrate 5 mM, NaCl 100 mM, saccharin 0.7 mM, pH 5.5, pirfenidone 16 mg/mL, 3.7 micron) | Throat Irritation ([2]; citrate 5 mM, NaCl 100 mM, saccharin 0.9 mM, pH 5.5, pirfenidone 16 mg/mL, 3.7 micron) | Throat Irritation ([2]; citrate 5 mM, NaCl 150 mM, pH 5.5, pirfenidone 4 mg/mL, 3.7 micron) | Throat Irritation ([2]; citrate 5 mM, NaCl 150 mM, saccharin 0.2 mM, pH 5.5, pirfenidone 4 mg/mL, 3.7 micron)
16.3 mg/mL: solubility ([1]; phosphate buffer, pH 7.5, aqueous buffer, Phosphate buffer 50 mM, pH 7.5, ambient temperature overnight)
490 mOsmo/Kg: Est. Osmolality ([2]; citrate 5 mM, MgCl2 130 mM, pH 5.5, pirfenidone 16 mg/mL) | Est. Osmolality ([2]; citrate 5 mM, MgCl2 130 mM, saccharin 0.5 mM, pH 5.5, pirfenidone 16 mg/mL)
375 mOsmo/Kg: Est. Osmolality ([2]; no buffer, NaCl 150 mM, pH ND, pirfenidone 16 mg/mL) | Est. Osmolality ([2]; no buffer, NaCl 150 mM, saccharin 0.7 mM, pH ND, pirfenidone 16 mg/mL)
1: Throat Irritation ([2]; citrate 5 mM, NaCl 100 mM, saccharin 0.7 mM, pH 5.5, pirfenidone 16 mg/mL, 4.6 micron (slower output device ~0.5 mL/minute)) | Throat Irritation ([2]; citrate 5 mM, NaCl 100 mM, saccharin 0.9 mM, pH 5.5, pirfenidone 16 mg/mL, 3.2 micron) | Throat Irritation ([2]; citrate 5 mM, NaCl 150 mM, pH 5.5, pirfenidone 4 mg/mL, 3.2 micron) | Throat Irritation ([2]; citrate 5 mM, NaCl 150 mM, saccharin 0.3 mM, pH 5.5, pirfenidone 4 mg/mL, 3.7 micron) | Throat Irritation ([2]; citrate 5 mM, NaCl 150 mM, saccharin 0.5 mM, pH 5.5, pirfenidone 16 mg/mL, 3.7 micron) | Throat Irritation ([2]; citrate 5 mM, NaCl 150 mM, saccharin 0.9 mM, pH 5.5, pirfenidone 16 mg/mL, 3.7 micron)
270 mOsmo/Kg: Est. Osmolality ([2]; citrate 5 mM, NaCl 100 mM, pH 5.5, pirfenidone 4 mg/mL) | Est. Osmolality ([2]; citrate 5 mM, NaCl 100 mM, saccharin 0.3 mM, pH 5.5, pirfenidone 4 mg/mL)
4: Throat Irritation ([2]; citrate 5 mM, NaCl 150 mM, pH 5.5, pirfenidone 16 mg/mL, 3.7 micron)
18.4 mg/mL: solubility ([1]; citrate buffer, pH 4, aqueous buffer, Citrate buffer 5 mM, pH 4, ambient temperature overnight) | solubility ([1]; citrate buffer, pH 6, aqueous buffer, Citrate buffer 5 mM, pH 6, ambient temperature overnight) | solubility ([1]; water, pH 7.9, water, buffer 0 mM, pH 7.9, ambient temperature overnight)
3: Throat Irritation ([2]; citrate 5 mM, MgCl2 130 mM, pH 5.5, pirfenidone 16 mg/mL, 3.7 micron) | Throat Irritation ([2]; citrate 5 mM, NaCl 100 mM, MgCl2 43.3 mM, pH 5.5, pirfenidone 16 mg/mL, 3.7 micron) | Throat Irritation ([2]; citrate 5 mM, NaCl 100 mM, pH 5.5, pirfenidone 16 mg/mL, 3.7 micron (first entry)) | Throat Irritation ([2]; citrate 5 mM, NaCl 100 mM, pH 5.5, pirfenidone 16 mg/mL, 3.7 micron (second entry)) | Throat Irritation ([2]; citrate 5 mM, NaCl 100 mM, saccharin 0.7 mM, pH 5.5, pirfenidone 16 mg/mL, 3.2 micron)
330 mOsmo/Kg: Est. Osmolality ([2]; citrate 5 mM, NaCl 150 mM, pH 5.5, pirfenidone 4 mg/mL (3.2 micron entry)) | Est. Osmolality ([2]; citrate 5 mM, NaCl 150 mM, pH 5.5, pirfenidone 4 mg/mL (3.7 micron entry)) | Est. Osmolality ([2]; citrate 5 mM, NaCl 150 mM, saccharin 0.2 mM, pH 5.5, pirfenidone 4 mg/mL) | Est. Osmolality ([2]; citrate 5 mM, NaCl 150 mM, saccharin 0.3 mM, pH 5.5, pirfenidone 4 mg/mL)
